The target in this test is T1, GABAA2 receptors (α2, β3, γ2 receptor subunits transfected into Sf9 cells) (Homo sapiens, UniProt P18507+P47869).
T1 construct: host or cells: Sf9 cells (membranes)
The test is described as follows: GABAA2 Binding Method ([3H]-Flunitrazepam displacement). To be noted: [3H]-Flunitrazepam ~2 nM, α2β3γ2 Sf9 membranes, 1 hr at 4° C. As for the experimental part: In some embodiments, the binding test is directed to a subtype of GABAA receptors, such as GABAA1 receptors (i.e., those containing the α1 subunit), GABAA2 receptors (i.e., those containing the α2 subunit), GABAA3 receptors (i.e., those containing the α3 subunit) and GABAA5 receptors (i.e., those containing the α5 subunit).
[^3H]-Flunitrazepam (Cat #NET567): Prepare 10× stock=20 nM, [F} in assay=˜2 nM
1. […] Add 5 ul of 30 uM flumazenil to wells 12 D-E for 50% control wells.
5. Add 25 μl [^3H]-Flunitrazepam (Automation Program 6). Incubate for 1 hr at 4° C.
6. Collect membranes on a cell harvester onto GF/B filter plates (pre-wet with dH2O and wash 5×400 μl/well, with cold assay buffer. (First 3 washes are considered hot; last two are cold.)
Data is analyzed by calculating percent of control, IC50, and Ki in an XLfit template. The following formula is used in the templates: […]

Several values for one entry are separate records, joined by “and”; a condition that tells them apart may be missing. Equal values may be shown once.

T1 sequence (P47869 29-451): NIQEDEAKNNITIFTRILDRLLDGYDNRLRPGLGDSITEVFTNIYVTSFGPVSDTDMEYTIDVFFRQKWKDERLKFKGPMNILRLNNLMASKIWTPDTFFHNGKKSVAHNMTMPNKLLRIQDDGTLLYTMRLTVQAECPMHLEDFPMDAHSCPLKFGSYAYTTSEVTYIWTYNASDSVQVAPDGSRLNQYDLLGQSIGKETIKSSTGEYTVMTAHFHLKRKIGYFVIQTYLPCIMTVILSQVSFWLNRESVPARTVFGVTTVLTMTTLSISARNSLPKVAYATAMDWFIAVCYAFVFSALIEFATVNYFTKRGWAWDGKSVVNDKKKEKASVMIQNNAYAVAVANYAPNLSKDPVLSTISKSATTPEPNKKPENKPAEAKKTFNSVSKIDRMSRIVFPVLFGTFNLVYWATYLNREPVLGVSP
T1 sequence (P28472 26-473 partner): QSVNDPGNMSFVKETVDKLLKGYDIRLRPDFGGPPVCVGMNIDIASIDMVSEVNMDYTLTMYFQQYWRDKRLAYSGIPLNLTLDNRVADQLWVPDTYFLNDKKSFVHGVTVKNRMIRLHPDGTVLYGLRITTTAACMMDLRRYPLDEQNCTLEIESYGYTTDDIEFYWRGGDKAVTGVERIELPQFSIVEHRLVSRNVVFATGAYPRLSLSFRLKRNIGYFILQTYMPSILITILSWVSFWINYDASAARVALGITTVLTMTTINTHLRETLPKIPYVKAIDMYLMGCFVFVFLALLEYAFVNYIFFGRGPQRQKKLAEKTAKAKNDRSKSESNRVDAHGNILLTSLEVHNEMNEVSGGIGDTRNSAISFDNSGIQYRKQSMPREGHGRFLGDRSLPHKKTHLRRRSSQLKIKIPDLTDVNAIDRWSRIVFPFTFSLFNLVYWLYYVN
T1 sequence (P18507 40-475): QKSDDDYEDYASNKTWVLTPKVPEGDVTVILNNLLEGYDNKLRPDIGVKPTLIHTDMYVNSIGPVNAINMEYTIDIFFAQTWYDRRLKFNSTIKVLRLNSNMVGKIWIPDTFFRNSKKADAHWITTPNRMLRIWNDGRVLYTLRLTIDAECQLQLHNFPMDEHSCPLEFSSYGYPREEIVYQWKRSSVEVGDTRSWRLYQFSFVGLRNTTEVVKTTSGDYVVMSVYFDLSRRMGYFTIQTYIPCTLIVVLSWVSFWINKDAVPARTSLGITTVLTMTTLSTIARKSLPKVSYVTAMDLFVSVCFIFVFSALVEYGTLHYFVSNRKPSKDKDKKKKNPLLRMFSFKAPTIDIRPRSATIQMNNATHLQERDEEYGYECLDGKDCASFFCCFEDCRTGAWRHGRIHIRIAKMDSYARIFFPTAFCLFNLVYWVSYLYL

For `Cc1ccncc1-c1cccc2c(N)c3c(nc12)CN(C)C3=O` [9-amino-2-methyl-5-(4-methylpyridin-3-yl)-2,3-dihydro-1H-pyrrolo[3,4-b]quinolin-1-one], the inhibition constant (Ki) (as a rule, a measure of affinity in units of concentration, obtained from inhibition or displacement) was 64.9 nM. Molecule `CCCN1Cc2nc3c(-c4ccc(F)cc4)cccc3c(N)c2C1=O` [9-amino-5-(4-fluorophenyl)-2-propyl-2,3-dihydro-1H-pyrrolo[3,4-b]quinolin-1-one] registered a Ki of 78.3 nM. `CN1Cc2nc3c(-c4ccccc4C#N)cccc3c(N)c2C1=O` [2-(9-amino-2-methyl-1-oxo-2,3-dihydro-1H-pyrrolo[3,4-b]quinolin-5-yl)benzonitrile] showed an inhibitory constant (Ki) of 64.3 nM. `CCN1Cc2nc3c(-c4cccc(OC)c4OC)cccc3c(N)c2C1=O` [9-amino-5-(2,3-dimethoxyphenyl)-2-ethyl-2,3-dihydro-1H-pyrrolo[3,4-b]quinolin-1-one] registered a Ki of 81.9 nM. The Ki values of the last two molecules are within 1.5-fold of each other. `COc1ccccc1-c1cccc2c(N)c3c(nc12)CN(C1CC1)C3=O` [9-amino-2-cyclopropyl-5-(2-methoxyphenyl)-2,3-dihydro-1H-pyrrolo[3,4-b]quinolin-1-one]: the Ki worked out at 54.1 nM. As to `COc1cccc(F)c1-c1cccc2c(N)c3c(nc12)CN(Cc1cccc(Cl)c1)C3=O` [9-amino-2-(3-chlorobenzyl)-5-(2-fluoro-6-methoxyphenyl)-2,3-dihydro-1H-pyrrolo[3,4-b]quinolin-1-one], the Ki stood at 27.8 nM. `COc1ccc(F)cc1-c1cccc2c(N)c3c(nc12)CN(C1CC1)C3=O` [9-amino-2-cyclopropyl-5-(5-fluoro-2-methoxyphenyl)-2,3-dihydro-1H-pyrrolo[3,4-b]quinolin-1-one] had a Ki of 73.4 nM. `COc1ncc(-c2cccc3c(N)c4c(nc23)CN(C2CC2)C4=O)c(OC)n1` [9-amino-2-cyclopropyl-5-(2,4-dimethoxypyrimidin-5-yl)-2,3-dihydro-1H-pyrrolo[3,4-b]quinolin-1-one] yielded an inhibitory constant (Ki) of 78.2 nM.

Molecule `CCCN1Cc2nc3c(-c4cnc(OC)nc4)cccc3c(N)c2C1=O` [9-amino-5-(2-methoxypyrimidin-5-yl)-2-propyl-2,3-dihydro-1H-pyrrolo[3,4-b]quinolin-1-one] returned a Ki of 75.8 nM. The Ki values of the last two molecules are within 1.5-fold of each other. `COc1ccc(C)cc1-c1cccc2c(N)c3c(nc12)CN(C)C3=O` [9-amino-5-(2-methoxy-5-methylphenyl)-2-methyl-2,3-dihydro-1H-pyrrolo[3,4-b]quinolin-1-one] returned a Ki of 70.2 nM. `Cc1cc(C)cc(-c2cccc3c(N)c4c(nc23)CN(C)C4=O)c1` [9-amino-5-(3,5-dimethylphenyl)-2-methyl-2,3-dihydro-1H-pyrrolo[3,4-b]quinolin-1-one] gave a Ki of 65.5 nM. This Ki and that of the molecule before are within 1.5-fold of each other. Molecule `CCC(C)N1Cc2nc3c(-c4c(F)cccc4OC)cccc3c(N)c2C1=O` (centres unmarked) [9-amino-2-(2-butyl)-5-(2-fluoro-6-methoxyphenyl)-2,3-dihydro-1H-pyrrolo[3,4-b]quinolin-1-one] displayed a Ki of 46.2 nM.

In the case of `COc1ccc(-c2c(F)ccc3c(N)c4c(nc23)CN(C2CC2)C4=O)c(OC)c1` [Example 28, 9-Amino-2-cyclopropyl-5-(2,4-dimethoxyphenyl)-6-fluoro-2,3-dihydropyrrolo[3,4-b]quinolin-1-one], the affinity corresponds to a Ki of 8.33 nM. `Nc1c2c(nc3c(-c4cccnc4)cccc13)CN(C1CC1)C2=O` [9-amino-2-cyclopropyl-5-(pyridin-3-yl)-2,3-dihydro-1H-pyrrolo[3,4-b]quinolin-1-one] came in with a Ki of 64.7 nM. As for `COc1cccc(F)c1-c1cccc2c(N)c3c(nc12)CN(C1CC1)C3=O` [Example 16, 9-Amino-2-cyclopropyl-5-(2-fluoro-6-methoxyphenyl)-2,3-dihydropyrrolo[3,4-b]quinolin-1-one], the Ki was 3.63 nM and 6.36 nM. In the case of `COc1ccc(CN2Cc3nc4c(-c5cnn(C)c5)cccc4c(N)c3C2=O)cc1` [9-amino-2-(4-methoxybenzyl)-5-(1-methyl-1H-pyrazol-4-yl)-2,3-dihydro-1H-pyrrolo[3,4-b]quinolin-1-one], the affinity corresponds to a Ki of 70.6 nM. In other words, the double-digit nanomolar range. With `CCCCN1Cc2nc3c(-c4ccc(C)nc4)cccc3c(N)c2C1=O` [9-amino-2-butyl-5-(6-methylpyridin-3-yl)-2,3-dihydro-1H-pyrrolo[3,4-b]quinolin-1-one], the Ki came out at 90.5 nM. The Ki values of the last two molecules are within 1.5-fold of each other. `COc1ccc(F)c(-c2cccc3c(N)c4c(nc23)CN(C)C4=O)c1` [9-amino-5-(2-fluoro-5-methoxyphenyl)-2-methyl-2,3-dihydro-1H-pyrrolo[3,4-b]quinolin-1-one] showed a Ki of 55.8 nM. In turn, `COc1ccc(CN2Cc3nc4c(-c5cccc(F)c5F)cccc4c(N)c3C2=O)cc1` [9-amino-5-(2,3-difluorophenyl)-2-(4-methoxybenzyl)-2,3-dihydro-1H-pyrrolo[3,4-b]quinolin-1-one] registered a Ki of 98.2 nM. Turning to `COc1ccc(OC)c(-c2c(SC)ccc3c(N)c4c(nc23)CN(C2CC2)C4=O)c1` [9-amino-2-cyclopropyl-5-(2,5-dimethoxyphenyl)-6-(methylthio)-2,3-dihydro-1H-pyrrolo[3,4-b]quinolin-1-one], the Ki came out at 36.7 nM. `CCCN1Cc2nc3c(-c4cccc(F)c4OC)cccc3c(N)c2C1=O` [9-amino-5-(3-fluoro-2-methoxyphenyl)-2-propyl-2,3-dihydro-1H-pyrrolo[3,4-b]quinolin-1-one] had a Ki of 57 nM. The molecule `CCCN1Cc2nc3c(-c4c(C#N)cccc4OC)cccc3c(N)c2C1=O` [2-(9-amino-1-oxo-2-propyl-2,3-dihydro-1H-pyrrolo[3,4-b]quinolin-5-yl)-3-methoxybenzonitrile] yielded an inhibitory constant (Ki) of 75.7 nM. `COc1ccc(-c2c(F)ccc3c(N)c4c(nc23)CN(C2CCC2)C4=O)c(OC)n1` [Example 52, 9-Amino-2-cyclobutyl-5-(2,6-dimethoxypyridin-3-yl)-6-fluoro-2,3-dihydropyrrolo[3,4-b]quinolin-1-one] had a Ki of 0.774 nM.

In turn, `CCCN1Cc2nc3c(-c4cnc(Cl)c(C)c4)cccc3c(N)c2C1=O` [9-amino-5-(6-chloro-5-methylpyridin-3-yl)-2-propyl-2,3-dihydro-1H-pyrrolo[3,4-b]quinolin-1-one] showed a Ki of 85.7 nM. Compared with the last molecule, the Ki is about 110-fold higher. The molecule `CCN1Cc2nc3c(-c4cnc(OC)nc4OC)c(F)ccc3c(N)c2C1=O` [Example 34, 9-Amino-5-(2,4-dimethoxypyrimidin-5-yl)-2-ethyl-6-fluoro-2,3-dihydropyrrolo[3,4-b]quinolin-1-one] gave a Ki of 16.7 nM. Against the preceding molecule, the Ki is about 5.1-fold lower. Under `COc1ccc(CN2Cc3nc4c(-c5ccc(C)nc5)cccc4c(N)c3C2=O)cc1` [9-amino-2-(4-methoxybenzyl)-5-(6-methylpyridin-3-yl)-2,3-dihydro-1H-pyrrolo[3,4-b]quinolin-1-one] stands 60.5 nM; under `COc1ccc(-c2cccc3c(N)c4c(nc23)CN(C2CC2)C4=O)c(OC)c1` [9-amino-2-cyclopropyl-5-(2,4-dimethoxyphenyl)-2,3-dihydro-1H-pyrrolo[3,4-b]quinolin-1-one], 58.4 nM. Under `CCCN1Cc2nc3c(-c4ccc(F)c(C#N)c4)cccc3c(N)c2C1=O` [5-(9-amino-1-oxo-2-propyl-2,3-dihydro-1H-pyrrolo[3,4-b]quinolin-5-yl)-2-fluorobenzonitrile] stands 74.5 nM. For the molecule `CCN1Cc2nc3c(-c4cccc(OC)c4F)c(F)ccc3c(N)c2C1=O` [9-amino-2-ethyl-6-fluoro-5-(2-fluoro-3-methoxyphenyl)-2,3-dihydro-1H-pyrrolo[3,4-b]quinolin-1-one], the Ki amounted to 5.29 nM. This Ki is about 14-fold lower than that of the molecule before.

The values above are taken from patent US20080318943A1, “Compounds and Uses Thereof - 848” (ASTRAZENECA AB, priority 2007, published 2008).
